{"source": "ChEMBL document CHEMBL1128172", "about": "“Structure-activity relationships of cyclic pentapeptide endothelin A receptor antagonists” (J Med Chem, 1995)", "data": [{"biological_target": "T1, Endothelin-1 receptor (Sus scrofa, UniProt Q29010)", "T1 sequence (Q29010 whole entry)": "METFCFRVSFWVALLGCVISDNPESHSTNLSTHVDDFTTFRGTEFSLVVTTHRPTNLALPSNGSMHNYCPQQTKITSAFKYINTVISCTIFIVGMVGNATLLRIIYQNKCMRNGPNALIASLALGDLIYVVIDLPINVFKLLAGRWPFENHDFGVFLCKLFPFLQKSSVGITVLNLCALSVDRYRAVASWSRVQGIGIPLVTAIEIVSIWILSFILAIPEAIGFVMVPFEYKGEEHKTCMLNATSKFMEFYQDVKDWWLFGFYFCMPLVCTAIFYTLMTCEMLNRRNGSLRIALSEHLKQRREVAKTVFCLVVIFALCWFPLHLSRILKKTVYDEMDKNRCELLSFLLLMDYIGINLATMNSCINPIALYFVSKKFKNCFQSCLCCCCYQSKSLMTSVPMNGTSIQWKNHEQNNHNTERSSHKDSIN", "assay": "The compound was tested for binding inhibitory activity against Endothelin A receptor from porcine aortic smooth muscle membranes.", "units": {"IC50 max": "nM"}, "values": [{"smiles": "CC(C)C[C@@H]1NC(=O)[C@@H](C)NC(=O)[C@@H]2CCCN2C(=O)[C@@H](CC(=O)O)NC(=O)[C@@H](Cc2c[nH]c3ccccc23)NC1=O", "note": "(single isomer, unassigned)", "IC50 max": 260}, {"smiles": "CC(C)C[C@@H]1NC(=O)[C@@H](C(C)C)NC(=O)[C@H](C)N(C)C(=O)[C@@H](CC(=O)O)NC(=O)[C@@H](Cc2c[nH]c3ccccc23)NC1=O", "note": "(single isomer, unassigned)", "IC50 max": 34}, {"smiles": "CC(C)C[C@@H]1NC(=O)[C@@H](C(C)C)NC(=O)[C@H](Cc2c[nH]c3ccccc23)NC(=O)[C@@H](CC(=O)O)NC(=O)[C@@H](Cc2c[nH]c3ccccc23)NC1=O", "note": "(single isomer, unassigned)", "IC50 max": 150}, {"smiles": "CC(C)[C@H]1NC(=O)[C@H](C)NC(=O)[C@@H](CC(=O)O)NC(=O)[C@@H](Cc2c[nH]c3ccccc23)NC(=O)[C@@H]2CCCN2C1=O", "note": "(single isomer, unassigned)", "IC50 max": 8500}, {"smiles": "CC(C)C[C@@H]1NC(=O)[C@@H](C(C)C)NC(=O)[C@@H]2CCCN2C(=O)[C@@H](CC(=O)O)NC(=O)[C@@H](Cc2cn(C(=O)OC(C)(C)C)c3ccccc23)NC1=O", "note": "(single isomer, unassigned)", "IC50 max": 1500}, {"smiles": "CC(C)C[C@@H]1NC(=O)[C@@H](C(C)C)NC(=O)[C@@H]2CSCN2C(=O)[C@@H](CC(=O)O)NC(=O)[C@@H](Cc2c[nH]c3ccccc23)NC1=O", "note": "(single isomer, unassigned)", "IC50 max": 20}, {"smiles": "CC(C)[C@H]1NC(=O)[C@H](CC(=O)O)NC(=O)[C@@H](CC(=O)O)NC(=O)[C@@H](Cc2c[nH]c3ccccc23)NC(=O)[C@H](C)NC1=O", "note": "(single isomer, unassigned)", "IC50 max": 2800}, {"smiles": "CC(C)C[C@@H]1NC(=O)[C@@H](C(C)C)NC(=O)[C@H](CS(=O)(=O)O)NC(=O)[C@@H](CC(=O)O)NC(=O)[C@@H](Cc2c[nH]c3ccccc23)NC1=O", "note": "(single isomer, unassigned)", "IC50 max": 140}, {"smiles": "CCCC[C@@H]1NC(=O)[C@@H](C(C)C)NC(=O)[C@@H]2CCCN2C(=O)[C@@H](CC(=O)O)NC(=O)[C@@H](Cc2c[nH]c3ccccc23)NC1=O", "note": "(single isomer, unassigned)", "IC50 max": 62}, {"smiles": "CC(C)C[C@@H]1NC(=O)[C@@H](C(C)C)NC(=O)[C@@H]2CCCN2C(=O)[C@@H](CC(=O)O)NC(=O)[C@@H](Cc2ccccc2)NC1=O", "note": "(single isomer, unassigned)", "IC50 max": "> 100000"}, {"smiles": "CC(C)C[C@@H]1NC(=O)[C@@H](C(C)C)NC(=O)[C@H]([C@@H](C)O)NC(=O)[C@@H](CC(=O)O)NC(=O)[C@@H](Cc2c[nH]c3ccccc23)NC1=O", "note": "(stereo in doubt)", "IC50 max": 270}, {"smiles": "CC[C@H](C)[C@@H]1NC(=O)[C@@H](C(C)C)NC(=O)[C@@H]2CCCN2C(=O)[C@@H](CC(=O)O)NC(=O)[C@@H](Cc2c[nH]c3ccccc23)NC1=O", "note": "(stereo in doubt)", "IC50 max": 230}]}]}
